Experimental data: patent US11713338B2, “Cyclic peptides multimers targeting α-4-β-7 integrin” (priority 2016, dated 2023)
Like-named read-outs stand apart in the source and are kept apart here.

How the values were obtained:
[1] = target: T1, VCAM-1 binding to α4β7-negative Th memory cells (Homo sapiens, UniProt P05556+P13612); experiment: VCAM-1 competition / receptor occupancy assay in human whole blood, α4β7-negative Th memory cells; format: cell-based
T1 construct: endogenous in cells
Experimental: Analyte Competition Assay in CD4+ Integrin α4+β7-Lo Memory T Cells
Receptor occupancy in primary cells was determined by measuring the amount of biotinylated human recombinant MAdCAM-1-FC or human recombinant VCAM-1-Fc bound to selected cell populations using flow cytometry. Human recombinant MAdCAM-1-FC or human recombinant VCAM-1-FC (R&D systems) were biotinylated using commercially available reagents and protocol (Pierce).
Whole blood was collected from human donors in sodium heparin tubes. A volume of 100 microL of blood was incubated with compound and 4 mM MnCL2 for 1 hour at room temperature. Cells were washed twice with 1 mL of 1X DPBS calcium magnesium free (CMF) (ThermoFisher Scientific) and resuspended in 100 microL of DPBS CMF.
Biotinylated human recombinant MAdCAM-1-Fc or VCAM-1-Fc were added at saturating concentration and incubated at room temperature for 1 hour. A volume of 2 mL of 1X BD FACS Lyse (BD Biosciences) was then added and the mixture was incubated for 8-12 minutes at room temperature in the dark to lyse red blood cells. Cells were washed with 1 mL stain buffer-FBS (BD Biosciences) and resuspended in 100 μl stain Buffer-FBS (BD Biosciences) containing 4 mM MnCl2. Biotinylated-rhMAdCAM-1 was applied at a saturating concentration of 1200 ng/mL to compete with test article binding and incubated at room temperature for 1 hour. Cells were then washed with 1 mL stain buffer-FBS and resuspended in […] stain buffer-FBS. The cells were incubated in the dark for 30 minutes at room temperature with 1 ul Streptavidin APC (Biolegend 0.2 mg/ml) and a panel of antibodies for the detection of memory T helper a4b7-positive cells subset. And amount of 5.0 ul each of the following antibodies were used; CD45 FITC (BioLegend 200 ug/ml), CD29 APC Cy7 (BioLegend 100 ug/ml), Integrin beta7 PE, (BioLegend concentration 50 μg/mL), CD49d V421 (BioLegend 50 μg/mL), CD3 V510 (BioLegend 30 μg/mL), CD4 PECy7 (BioLegend 100 μg/mL), CD45RO PerCP, BioLegend 200 μg/mL). The cells were then washed with stain-buffer-FBS and resuspended in 150 microL stain buffer-FBS for acquisition on the flow cytometer (BD FACSCanto™ flow cytometer and BDFACSDiva™ software). FACS data was acquire by electronic gating on the basis of forward versus side scatter, The cytometer was set to collect 20,000 events in each tube. Cell population were determined using the following markers, CD45+, CD3+, CD4+, CD45RO+, CD49d+, integrin b7, biotinylated ligands.
Compound receptor occupancy was defined as the decrease in the number of integrin β7+ or integrin β7-lo cells binding biotinylated rhMAdCAM-1 or rhVCAM-1, respectively.
(§1) Receptor occupancy was calculated with the following equation: 100−((% ligand-positive cells with compound/% ligand-positive cells DMSO)*100) In Vivo T Lymphocyte Trafficking Analysis in Mouse Model of Colitis

[2] = tested on: α4β7+ T helper memory lymphocytes in mesenteric lymph nodes; experiment: In vivo T lymphocyte trafficking analysis in DSS mouse model of colitis; details: DSS-treated mice
Experimental: as §1
Animal care: The animal care facility employed is accredited by the Canadian Council on Animal Care (CCAC). This study was approved by a certified Animal Care Committee and complied with CACC standards and regulations governing the use of animals for research. The animals were housed under standardized environmental conditions. A standard certified commercial rodent diet was provided ad libitum. Tap water was provided ad libitum at all times.
Dextran sulfate sodium (DSS) was administered to C57Bl/6 female mice for five days through addition to their drinking water at 3%. Body weight and disease activity index (“DAI”) were measured on Day 5 in order to distribute DSS-treated animals in uniform groups prior to dosing. DAI was scored based on the severity three specific symptoms associated with colitis: 1—blood in stool (negative hemoccult, positive hemoccult, blood traces in stool visible, rectal bleeding); 2—stool consistency (normal, soft but still formed, very soft, diarrhea); 3—body weight loss. […]
Statistical analysis was performed using GraphPad Prism. Differences among groups were evaluated by two-way ANOVA, with a 95% confidence interval.

[3] = human whole blood, inhibition of VCAM binding to α4β7-negative Th memory cells, FACS, read-out: VCAM FACS α4+β7− Th mem

T1 sequence (P13612 34-1032): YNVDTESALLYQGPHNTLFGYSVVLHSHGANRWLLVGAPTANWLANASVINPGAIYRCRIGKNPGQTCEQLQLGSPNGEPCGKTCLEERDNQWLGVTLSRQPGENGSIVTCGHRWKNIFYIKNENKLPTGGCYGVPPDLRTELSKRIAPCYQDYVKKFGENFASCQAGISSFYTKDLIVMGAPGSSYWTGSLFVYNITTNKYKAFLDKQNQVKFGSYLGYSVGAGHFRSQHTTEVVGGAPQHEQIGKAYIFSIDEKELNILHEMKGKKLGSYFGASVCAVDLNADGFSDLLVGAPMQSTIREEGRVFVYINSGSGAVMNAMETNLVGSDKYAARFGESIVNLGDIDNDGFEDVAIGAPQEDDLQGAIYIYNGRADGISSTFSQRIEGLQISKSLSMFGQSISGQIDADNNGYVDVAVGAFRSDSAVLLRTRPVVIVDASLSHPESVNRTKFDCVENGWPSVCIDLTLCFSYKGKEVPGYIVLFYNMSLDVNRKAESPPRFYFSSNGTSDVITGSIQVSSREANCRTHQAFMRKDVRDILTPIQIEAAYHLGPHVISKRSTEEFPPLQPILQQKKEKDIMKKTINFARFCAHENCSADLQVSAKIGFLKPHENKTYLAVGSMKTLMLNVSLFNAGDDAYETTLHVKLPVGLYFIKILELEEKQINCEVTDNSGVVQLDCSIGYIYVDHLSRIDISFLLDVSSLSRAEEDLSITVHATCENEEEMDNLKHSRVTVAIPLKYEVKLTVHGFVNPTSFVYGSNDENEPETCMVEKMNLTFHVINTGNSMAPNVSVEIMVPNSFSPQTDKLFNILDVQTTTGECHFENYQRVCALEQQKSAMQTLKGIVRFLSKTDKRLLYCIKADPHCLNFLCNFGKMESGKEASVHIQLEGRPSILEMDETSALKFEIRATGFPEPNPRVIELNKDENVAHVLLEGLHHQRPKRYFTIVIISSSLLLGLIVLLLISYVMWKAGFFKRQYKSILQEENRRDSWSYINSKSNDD
T1 sequence (P05556 21-798): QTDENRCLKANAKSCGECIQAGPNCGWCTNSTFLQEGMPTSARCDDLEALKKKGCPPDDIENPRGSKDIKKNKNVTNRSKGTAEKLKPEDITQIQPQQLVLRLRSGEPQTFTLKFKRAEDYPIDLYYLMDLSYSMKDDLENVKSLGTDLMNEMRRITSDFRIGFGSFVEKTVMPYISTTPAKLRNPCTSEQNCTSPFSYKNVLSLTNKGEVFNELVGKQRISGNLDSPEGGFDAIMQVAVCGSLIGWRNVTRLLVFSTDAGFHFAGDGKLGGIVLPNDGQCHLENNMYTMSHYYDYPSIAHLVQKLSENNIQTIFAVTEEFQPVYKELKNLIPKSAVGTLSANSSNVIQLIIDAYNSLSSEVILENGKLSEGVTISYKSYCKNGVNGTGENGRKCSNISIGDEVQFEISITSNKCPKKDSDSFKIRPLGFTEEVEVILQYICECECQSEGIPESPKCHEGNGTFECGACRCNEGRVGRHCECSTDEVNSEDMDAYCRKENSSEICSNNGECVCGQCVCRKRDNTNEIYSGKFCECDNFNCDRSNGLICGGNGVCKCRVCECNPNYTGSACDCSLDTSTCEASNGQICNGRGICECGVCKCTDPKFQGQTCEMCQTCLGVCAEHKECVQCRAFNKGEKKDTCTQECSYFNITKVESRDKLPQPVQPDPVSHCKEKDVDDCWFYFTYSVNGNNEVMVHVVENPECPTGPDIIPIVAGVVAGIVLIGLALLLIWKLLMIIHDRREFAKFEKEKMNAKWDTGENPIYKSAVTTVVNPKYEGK

SMILES	IC50 [1, 3]	reduction of the number of α4β7+ positive lymphocytes in mesenteric lymph nodes ([2]; 80 mg/kg orally daily days 6 to 9)	reduction in α4β7+ T helper memory lymphocytes in mesenteric lymph nodes, dose dependence ([2]; FIG. 9)	IC50 ([1]; whole blood from a single donor, FIG. 11, up to 4000 nM, read-out: IC50, VCAM binding)
CC(C)C[C@@H]1NC(=O)c2ccc(-c3ccc(N4CCN(CCC(=O)N5CCN(c6ccc(-c7ccc8cc7CNC(=O)[C@@H]7CCCN7[C@H](C(=O)NC(C)(C)C)[C@H](C)NC(=O)[C@H]([C@@H](C)O)NC(=O)[C@H](CC(=O)O)NC(=O)[C@H](CC(C)C)NC8=O)cc6)CC5)CC4)cc3)c(c2)CNC(=O)[C@@H]2CCCN2[C@H](C(=O)NC(C)(C)C)[C@H](C)NC(=O)[C@H]([C@@H](C)O)NC(=O)[C@H](CC(=O)O)NC1=O [Compound 482]	≥ 4 µM	–	–	–
CC(C)C[C@@H]1NC(=O)c2ccc(-c3ccc(N4CCN(C(=O)CCOCCOCCOCCOCCOCCOCCOCCOCCOCCOCCC(=O)N5CCN(c6ccc(-c7ccc8cc7CNC(=O)[C@@H]7CCCN7[C@H](C(=O)NC(C)(C)C)[C@H](C)NC(=O)[C@H]([C@@H](C)O)NC(=O)[C@H](CC(=O)O)NC(=O)[C@H](CC(C)C)NC8=O)cc6)CC5)CC4)cc3)c(c2)CNC(=O)[C@@H]2CCCN2[C@H](C(=O)NC(C)(C)C)[C@H](C)NC(=O)[C@H]([C@@H](C)O)NC(=O)[C@H](CC(=O)O)NC1=O [Compound 511]	20 µM	–	–	–
CC(C)C[C@@H]1NC(=O)c2ccc(-c3ccc(N4CCN(C(=O)c5ccccc5-c5ccccc5C(=O)N5CCN(c6ccc(-c7ccc8cc7CNC(=O)[C@@H]7CCCN7[C@H](C(=O)NC(C)(C)C)[C@H](C)NC(=O)[C@H]([C@@H](C)O)NC(=O)[C@H](CC(=O)O)NC(=O)[C@H](CC(C)C)NC8=O)cc6)CC5)CC4)cc3)c(c2)CNC(=O)[C@@H]2CCCN2[C@H](C(=O)NC(C)(C)C)[C@H](C)NC(=O)[C@H]([C@@H](C)O)NC(=O)[C@H](CC(=O)O)NC1=O [Compound 517]	0.607 µM	60%	dose-dependent reduction	–
CC(C)C[C@@H]1NC(=O)C[C@H](CCCCN)N(C)C(=O)[C@H](CCCCNC(=O)CCCCCCCCC(=O)NCCCC[C@@H]2NC(=O)[C@@H]3CCCN3[C@H](C(=O)NC(C)(C)C)[C@H](C)NC(=O)[C@H]([C@@H](C)O)NC(=O)[C@H](CC(=O)O)NC(=O)[C@H](CC(C)C)NC(=O)C[C@H](CCCCN)N(C)C2=O)NC(=O)[C@@H]2CCCN2[C@H](C(=O)NC(C)(C)C)[C@H](C)NC(=O)[C@H]([C@@H](C)O)NC(=O)[C@H](CC(=O)O)NC1=O [Compound 530]	> 4 µM	–	–	≥ 0.6 µM
